Data on one compound can be found in EP0278997A1, “Azapropazone rectal capsules” (SIEGFRIED AKTIENGESELLSCHAFT, priority 1987, dated 1988).

Each structure is given as a SMILES string. “And” between values parts separate entries of the source, which are not always exact repeats. Equal values may be shown once. Read-outs that look alike come from different tables or passages of the source.

The nature of this data set: Bioavailability of the rectal capsule versus i.v. administration (plasma AUC 0-72) in test subjects. The format is in vivo. The conditions noted are these: for AUC at 72 h: human, plasma, iv, read-out: A U C 0 - 72.

As to `CCCC1C(=O)N2C(N(C)C)=Nc3ccc(C)cc3N2C1=O` (stereo not drawn) [Azapropazon, 3-Dimethyl-amino-7-methyl-1,2-(n-propyimaionyi)-1,2-dihydro-1,2.4-benzotriazin], the AUC at 72 h was 1060 µg·h/mL (geometric mean (geom.x) of 6 Probanden) and 1080 µg·h/mL (mean (x) of 6 Probanden). Further, where the note is “individual Proband, 4320 min”, the “A U C 0 - 72” value was 926.46 mcg/ml.Std and 728.31 mcg/ml.Std and 1158.02 mcg/ml.Std and 964.71 mcg/ml.Std and 1466.56 mcg/ml.Std and 1252.36 mcg/ml.Std.
